According to US9315475B2 (MERCK SHARP & DOHME CORP., priority 2011, dated 2016):
Where a name gives a salt, the structure may show the parent alone.

How the values were obtained:
wildtype HIV-1 protease = biological target: T1, wildtype HIV-1 protease (Human immunodeficiency virus type 1 group M subtype B, UniProt P04585); test: Assay for inhibition of microbial expressed HIV protease (Pepcleav); type: biochemical; settings: wild type HIV-1 protease expressed in E. coli, peptide substrate, pH 5.5; mean of at least two independent experiments; read-out: Pepcleav
T1 construct: the wildtype HIV-1 protease (which was expressed in Escherichia coli); made in house; host or cells: Escherichia coli
How it was run: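 E. coli-expressed wild-type HIV-1 protease (20 pM) preincubated 30 min at room temperature with inhibitor in pH 5.5 sodium acetate/NaCl/BSA buffer, then 400 μM Val-Ser-Gln-Asn-(βnaphthyl)Ala-Pro-Ile-Val added for 1 h at 30 °C. Quenched with formic acid; product quantified by LC-MS/MS peak area, indinavir internal standard.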

HIV-1 (H9IIIB strain) = test: Antiviral acute infection assay in cell culture (Spread); type: cell-based; settings: Human immunodeficiency virus 1, T-lymphoid, HIV-1 H9IIIB infection of MT-4 human T-lymphoid cells in 10% FBS; mean of at least two independent experiments
Excerpt: Antiviral Assays in Cell Culture (“Spread”)
Acute Infection Assay (“Spread”) data were generated using HIV-1 (H9IIIB strain) infection of MT-4 human T-lymphoid cells in 10% FBS, and according to the methods disclosed by J. P. Vacca et al, “L-735,524: An orally bioavailable human immunodeficiency virus type 1 protease inhibitor,” Proc. Natl. Acad. Sci. USA, Vol. 91, pp. 4096-4100 (April 1994).

With `COC(=O)N[C@H](C(=O)Nc1cccc(F)c1CC[C@@H]1CN[C@H](COC(N)=O)CO1)C(c1ccc(F)cc1)c1ccc(F)cc1` [Example 284, N-[2-(2-{(2R,5S)-5-[(carbamoyloxy)methyl]morpholin-2-yl}ethyl)-3-fluorophenyl]-4-fluoro-β-(4-fluorophenyl)-Nα-(methoxy-carbonyl)-L-phenylalaninamide] the IC50 (wildtype HIV-1 protease) was 0.012 µM and the EC50 (HIV-1 (H9IIIB strain)) was 0.019 µM.
`N[C@H](C(=O)Nc1cncc(F)c1CC[C@@H]1CN[C@H](COC(=O)NCC(F)(F)F)CO1)C(c1ccc(F)cc1)c1ccc(F)cc1` [Example 79, 4-Fluoro-β-(4-fluorophenyl)-N-(5-fluoro-4-{2-[(2R,5S)-5-({[(2,2,2-trifluoroethyl)carbamoyl]oxy}methyl)morpholin-2-yl]ethyl}pyridin-3-yl)-L-phenylalaninamide trihydrochloride] gave an IC50 (wildtype HIV-1 protease) of 0.0036 µM and an EC50 (HIV-1 (H9IIIB strain)) of 0.037 µM.
`N[C@H](C(=O)Nc1cncc(F)c1CC[C@@H]1CN[C@H](COC(=O)NC2CC(F)(F)C2)CO1)C(c1ccc(F)cc1)c1ccc(F)cc1` [Example 217, N-(4-{2-[(2R,5S)-5-({[(3,3-difluorocyclobutyl)carbamoyl]oxy}methyl)morpholin-2-yl]ethyl}-5-fluoropyridin-3-yl)-4-fluoro-β-(4-fluorophenyl)-L-phenylalaninamide] showed an IC50 (wildtype HIV-1 protease) of 0.0027 µM and an EC50 (HIV-1 (H9IIIB strain)) of 0.094 µM.
With `CCC[C@H](c1ccccc1)[C@H](NC(=O)OC)C(=O)Nc1cccc(F)c1CC[C@@H]1CN[C@H](COC(=O)NCC(F)(F)F)CO1` [Example 293, (βR)-N-(3-fluoro-2-{2-[(2R,5S)-5-({[(2,2,2-trifluoroethyl)carbamoyl]oxy}methyl)morpholin-2-yl]ethyl}phenyl)-Nα-(methoxycarbonyl)-β-propyl-L-phenylalaninamide] the IC50 (wildtype HIV-1 protease) was 0.1 µM and the EC50 (HIV-1 (H9IIIB strain)) was 0.08 µM.
`N[C@H](C(=O)Nc1cncc(F)c1CC[C@@H]1CNC(COC(=O)NCC(F)(F)F)CO1)[C@@H](c1ccc(F)cc1)c1cc(F)cc(F)c1` (stereo in doubt) [Example 90, (2S,3S)-2-Amino-3-(4-fluorophenyl)-3-(3,5-difluorophenyl)-N-(5-fluoro-4-(2-((2R,5R)-5-(2,2,2-trifluoroethylaminocarbonyloxymethyl)morpholine-2-yl)ethyl)pyridin-3-yl)propanamide] showed an IC50 (wildtype HIV-1 protease) of 0.0024 µM and an EC50 (HIV-1 (H9IIIB strain)) of 0.049 µM.
With `N[C@H](C(=O)Nc1cccc(F)c1CC[C@@H]1CN[C@H](COC(=O)NCC(F)(F)F)CO1)[C@H](c1ccc(F)cc1)c1cccc(Cl)c1` [Example 257, (βR)-β-(3-chlorophenyl)-4-fluoro-N-(3-fluoro-2-{2-[(2R,5S)-5-({[(2,2,2-trifluoroethyl)carbamoyl]oxy}methyl)morpholin-2-yl]ethyl}phenyl)-L-phenylalaninamide] the IC50 (wildtype HIV-1 protease) was 0.0051 µM and the EC50 (HIV-1 (H9IIIB strain)) was 0.051 µM.
Work on `NC(=O)OC[C@@H]1CO[C@H](COc2c(F)cc(F)cc2NC(=O)[C@@H](N)C(c2ccc(F)cc2)c2ccc(F)cc2)CN1` [Example 258, N-[2-({(2S,5S)-5-[(carbamoyloxy)methyl]morpholin-2-yl}methoxy)-3,5-difluorophenyl]-4-fluoro-β-(4-fluorophenyl)-L-phenylalaninamide] yielded an IC50 (wildtype HIV-1 protease) of 0.005 µM and an EC50 (HIV-1 (H9IIIB strain)) of 0.26 µM.
Compound `O=C(C[C@@H](c1ccc(F)cc1)c1cc(F)cc(F)c1)Nc1cccc(F)c1CC[C@@H]1CN[C@H](COC(=O)NCC(F)(F)F)CO1` [Example 147, {(3S,6R)-6-[2-(2-{[(3S)-3-(3,5-difluorophenyl)-3-(4-fluorophenyl)propanoyl]amino}-6-fluorophenyl)ethyl]morpholin-3-yl} methyl (2,2,2-trifluoroethyl)carbamate] has an IC50 (wildtype HIV-1 protease) of 0.0049 µM and an EC50 (HIV-1 (H9IIIB strain)) of 0.12 µM.
`COc1ccc([C@@H](c2ccccc2)[C@H](N)C(=O)Nc2cncc(F)c2CC[C@@H]2CN[C@H](COC(=O)NCC(F)(F)F)CO2)cc1` [Example 256, (βR)-N-(5-fluoro-4-{2-[(2R,5S)-5-({[(2,2,2-trifluoroethyl)carbamoyl]oxy}methyl)morpholin-2-yl]ethyl}pyridin-3-yl)-O-methyl-β-phenyl-L-tyrosinamide] gave an IC50 (wildtype HIV-1 protease) of 0.0057 µM and an EC50 (HIV-1 (H9IIIB strain)) of 0.1 µM.
Compound `N[C@H](C(=O)Nc1c(Cl)cccc1OC[C@@H]1CN[C@H](COC(=O)NCC(F)(F)F)CO1)C(c1ccc(F)cc1)c1ccc(F)cc1` [Example 260, N-(2-chloro-6-{[(2S,5S)-5-({[(2,2,2-trifluoroethyl)carbamoyl]oxy}methyl)morpholin-2-yl]methoxy}phenyl)-4-fluoro-β-(4-fluorophenyl)-L-phenylalaninamide] has an IC50 (wildtype HIV-1 protease) of 0.0048 µM and an EC50 (HIV-1 (H9IIIB strain)) of 0.19 µM.
`N[C@H](C(=O)Nc1cccc(F)c1CC[C@@H]1CN[C@H](COC(=O)NCC(F)(F)F)CO1)[C@H](c1ccccc1)c1cccc(Cl)c1` [Example 244, (βR)-3-chloro-N-(3-fluoro-2-{2-[(2R,5S)-5-({[(2,2,2-trifluoroethyl)carbamoyl]oxy}methyl)morpholin-2-yl]ethyl}phenyl)-β-phenyl-L-phenylalaninamide] was tested, and the IC50 (wildtype HIV-1 protease) was 0.022 µM and the EC50 (HIV-1 (H9IIIB strain)) was 0.12 µM.
`CC(C)COC(=O)N[C@H](C(=O)Nc1cncc(F)c1CC[C@@H]1CN[C@H](COC(=O)NCC(F)(F)F)CO1)C(c1ccc(F)cc1)c1ccc(F)cc1` [Example 140, 4-Fluoro-β-(4-fluorophenyl)-N-(5-fluoro-4-{2-[(2R,5S)-5-({[(2,2,2-trifluoroethyl)carbamoyl]oxy}methyl)morpholin-2-yl]ethyl}pyridin-3-yl)-Nα-[(2-methylpropoxy)carbonyl]-L-phenylalaninamide] gave an IC50 (wildtype HIV-1 protease) of 0.0021 µM and an EC50 (HIV-1 (H9IIIB strain)) of 0.021 µM.
In the case of `N[C@H](C(=O)Nc1cncc(F)c1CC[C@@H]1CN[C@H](COC(=O)NCC(F)(F)F)CO1)[C@H](c1ccc(F)cc1)c1ccc(Cl)cc1` [Example 267, (βR)-β-(4-chlorophenyl)-4-fluoro-N-(5-fluoro-4-{2-[(2R,5S)-5-({[(2,2,2-trifluoroethyl)carbamoyl]oxy}methyl)morpholin-2-yl]ethyl}pyridin-3-yl)-L-phenylalaninamide], the IC50 (wildtype HIV-1 protease) is reported as 0.0031 µM and the EC50 (HIV-1 (H9IIIB strain)) is reported as 0.051 µM.
With `O=C(C[C@@H](c1ccc(F)cc1)C1CCCCC1)Nc1cncc(F)c1CC[C@@H]1CN[C@H](COC(=O)NCC(F)(F)F)CO1` [Example 148, {(3S,6R)-6-[2-(3-{[(3R)-3-cyclohexyl-3-(4-fluorophenyl)propanoyl]amino}-5-fluoropyridin-4-yl)ethyl]morpholin-3-yl}methyl (2,2,2-trifluoroethyl)carbamate] the IC50 (wildtype HIV-1 protease) was 0.022 µM and the EC50 (HIV-1 (H9IIIB strain)) was 0.15 µM.
`N[C@H](C(=O)Nc1cncc(F)c1CC[C@@H]1CN[C@H](COC(=O)NCc2ccno2)CO1)C(c1ccc(F)cc1)c1ccc(F)cc1` [Example 255, 4-fluoro-N-(5-fluoro-4-{2-[(2R,5S)-5-({[(isoxazol-5-ylmethyl)carbamoyl]oxy}methyl)morpholin-2-yl]ethyl}pyridin-3-yl)-β-(4-fluorophenyI)-L-phenylalaninamide] was tested, and the IC50 (wildtype HIV-1 protease) was 0.0064 µM and the EC50 (HIV-1 (H9IIIB strain)) was 0.21 µM.
Compound `N[C@H](C(=O)Nc1cccc(F)c1CC[C@@H]1CN[C@H](COC(=O)NCC(F)(F)F)CO1)[C@H](c1ccc(F)cc1)c1ccc(Cl)cc1` [Example 273, (βR)-β-(4-chlorophenyl)-4-fluoro-N-(3-fluoro-2-{2-[(2R,5S)-5-({[(2,2,2-trifluoroethyl)carbamoyl]oxy}methyl)morpholin-2-yl]ethyl}phenyl)-L-phenylalaninamide] has an IC50 (wildtype HIV-1 protease) of 0.0014 µM and an EC50 (HIV-1 (H9IIIB strain)) of 0.02 µM.
Work on `COC(=O)N[C@H](C(=O)Nc1cncc(F)c1CC[C@@H]1CN[C@H](COC(=O)NCC(F)(F)F)CO1)C(c1cccc(F)c1)c1cccc(F)c1` [Example 280, 3-fluoro-β-(3-fluorophenyl)-N-(5-fluoro-4-{2-[(2R,5S)-5-({[(2,2,2-trifluoroethyl)carbamoyl]oxy}methyl)morpholin-2-yl]ethyl}pyridin-3-yl)-Nα-(methoxycarbonyl)-L-phenylalaninamide] yielded an IC50 (wildtype HIV-1 protease) of 0.001 µM and an EC50 (HIV-1 (H9IIIB strain)) of 0.015 µM.
With `N[C@H](C(=O)Nc1cncc(F)c1CC[C@@H]1CN[C@H](COC(=O)NC[C@H]2CCC(=O)N2)CO1)C(c1ccc(F)cc1)c1ccc(F)cc1` [Example 254, 4-fluoro-N-(5-fluoro-4-{2-[(2R,5S)-5-{[({[(2R)-5-oxopyrrolidin-2-yl]methyl}carbamoyl)oxy]methyl}morpholin-2-yl]ethyl}pyridin-3-yl)-β-(4-fluorophenyl)-L-phenylalaninamide] the IC50 (wildtype HIV-1 protease) was 0.0076 µM and the EC50 (HIV-1 (H9IIIB strain)) was 1.1 µM.
With `NC(=O)OC[C@@H]1CO[C@H](CCc2c(F)cccc2NC(=O)[C@@H](N)C(c2ccc(F)cc2)c2ccc(F)cc2)CN1` [Example 116, N-[2-(2-{(2R,5S)-5-[(Carbamoyloxy)methyl]morpholin-2-yl}ethyl)-3-fluorophenyl]-4-fluoro-β-(4-fluorophenyl)-L-phenylalaninamide] the IC50 (wildtype HIV-1 protease) was 0.017 µM and the EC50 (HIV-1 (H9IIIB strain)) was 0.047 µM.
In the case of `COC(=O)N[C@H](C(=O)Nc1cccc(F)c1CC[C@@H]1CN[C@H](COC(=O)NCC(F)(F)F)CO1)C(c1cccc(F)c1)c1cccc(F)c1` [Example 307, 3-fluoro-β-(3-fluorophenyl)-N-(3-fluoro-2-{2-[(2R,5S)-5-({[(2,2,2-trifluoroethyl)carbamoyl]oxy}methyl)morpholin-2-yl]ethyl}phenyl)-Nα-(methoxy-carbonyl)-L-phenylalaninamide], the IC50 (wildtype HIV-1 protease) is reported as 0.003 µM and the EC50 (HIV-1 (H9IIIB strain)) is reported as 0.014 µM.
